From the supplement of paper PMC11208160

Experiment: recombinant barcode read abundance after kanamycin selection (control-corrected) (log10(CPM+1)); higher = more efficient recombination; sequences stand for … in AGTGCAGAGAAAATCGGCCAGTTTTCTCTGCCTGCAGTCCGCATGCCGT…AGATTTATGCAGCGGACTGCCTTTCTCCCAAAGTGATAAACCGGACAGTATCATGGACCGGTTTTCCCGGTAATCCGTATTTGCAAGGTTGGTTTCACT; site = the 11-nt target
Method in brief: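 Recombination efficiency in this pooled E. coli screen uses counts per million of barcodes at recombinant junctions, averaged and corrected against the control. The reported form is log10(CPM+1). Two replicates were plated on chloramphenicol/ampicillin LB agar as control and two on chloramphenicol/ampicillin/kanamycin with 0.1 mM IPTG.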
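Also: IS621 recombinase and bridge RNA in Escherichia coli cells.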

Sequence | recombinant barcode read abundance (log10)
AGTACGTCTTGGGTTCTAACCTGTTGCTT (site GTTACGTCTAA) | 0.0179
AGTACTCCTTGGGTTCTAACCTGTTGCTG (site AATACTACTCA) | 0.085
AGTACTCCTTGGGTTCTAACCTGTTGCTG (site AGTACTCCTCA) | 0.172
AGTATAACTTGGGTTCTAACCTGTTGCTG (site AGTATAACTCA) | 0.24
AGTATAACTTGGGTTCTAACCTGTTGCTG (site GTGTACCCTGT) | 0.178
AGTCATTCTTGGGTTCTAACCTGTTGCAT (site AGTCAGTCTAC) | 0.166
AGTCATTCTTGGGTTCTAACCTGTTGCAT (site AGTCATTCTAT) | 0.45
AGTCCCGCTTGGGTTCTAACCTGTTGCCA (site AGTCCCGCTTG) | 1.67
AGTCCCGCTTGGGTTCTAACCTGTTGCCA (site GCATATACTAC) | 0.212
AGTCCTACTTGGGTTCTAACCTGTTGCAG (site AGGCTTACTCT) | 0.234
AGTCCTACTTGGGTTCTAACCTGTTGCAG (site AGTCCTACTCT) | 0.794
AGTCGGACTTGGGTTCTAACCTGTTGCAC (site AGTCGGACTGT) | 0.846
AGTCGGACTTGGGTTCTAACCTGTTGCAC (site CACGATCCTAA) | 0.0668
AGTCTCGCTTGGGTTCTAACCTGTTGCGG (site AGTATCGCTCC) | 0.0167
AGTCTCGCTTGGGTTCTAACCTGTTGCGG (site AGTCTCGCTCC) | 0.345
AGTCTCGCTTGGGTTCTAACCTGTTGCGG (site AGTGTCGCTCC) | 0.0171
AGTCTCGCTTGGGTTCTAACCTGTTGCGG (site AGTTTCGCTCC) | 0.0153
AGTCTCTCTTGGGTTCTAACCTGTTGCCT (site AGTCTCTCTAG) | 0.688
AGTCTCTCTTGGGTTCTAACCTGTTGCCT (site AGTGACTCTAG) | 0.0251
AGTCTCTCTTGGGTTCTAACCTGTTGCTA (site AGTCTCTCTCG) | 0.128
AGTCTCTCTTGGGTTCTAACCTGTTGCTA (site AGTCTCTCTTA) | 1.21
AGTGAAGCTTGGGTTCTAACCTGTTGCAC (site AGTGAAGCTGT) | 2.33

Sequence | recombinant barcode read abundance (log10)
AGTGAAGCTTGGGTTCTAACCTGTTGCAC (site CACTTCCCTTC) | 0.298
AGTGAGCCTTGGGTTCTAACCTGTTGCCT (site AGTAAGCCTAG) | 0.344
AGTGAGCCTTGGGTTCTAACCTGTTGCCT (site AGTCAGCCTAG) | 0.0584
AGTGAGCCTTGGGTTCTAACCTGTTGCCT (site AGTGAGCCTAG) | 1.26
AGTGAGCCTTGGGTTCTAACCTGTTGCCT (site AGTTAGCCTAG) | 0.0633
AGTGGACCTTGGGTTCTAACCTGTTGCCC (site AGTGGACCTGG) | 1.86
AGTGGACCTTGGGTTCTAACCTGTTGCCC (site TCCCATACTAT) | 0.0634
AGTGGAGCTTGGGTTCTAACCTGTTGCCT (site AGGGGATCTAG) | 0.0601
AGTGGAGCTTGGGTTCTAACCTGTTGCCT (site AGTGGAGCTAG) | 2.27
AGTGGGACTTGGGTTCTAACCTGTTGCCA (site AGTGGGACTTG) | 1.56
AGTGGGACTTGGGTTCTAACCTGTTGCCA (site GGTGAGACTTG) | 0.0594
AGTTAGTCTTGGGTTCTAACCTGTTGCCA (site AGTCAGTCTTG) | 0.0961
AGTTAGTCTTGGGTTCTAACCTGTTGCCA (site AGTTAGTCTTG) | 0.0604
AGTTCGACTTGGGTTCTAACCTGTTGCCT (site AATTCGACTAG) | 0.0143
AGTTCGACTTGGGTTCTAACCTGTTGCCT (site ACTTCGACTAG) | 0.0163
AGTTCGACTTGGGTTCTAACCTGTTGCCT (site AGTTCGACTAG) | 0.429
AGTTCGACTTGGGTTCTAACCTGTTGCCT (site ATTTCGACTAG) | 0.234
AGTTCGCCTTGGGTTCTAACCTGTTGCTA (site AGTGCGCCTTA) | 0.317
AGTTCGCCTTGGGTTCTAACCTGTTGCTA (site AGTTCGCCTTA) | 0.012
AGTTGGCCTTGGGTTCTAACCTGTTGCAG (site AGTTGGCCTCT) | 0.39
AGTTGGCCTTGGGTTCTAACCTGTTGCAG (site CTAACTACTAA) | 0.313
AGTTGGGCTTGGGTTCTAACCTGTTGCTG (site AGCTGGGCTCC) | 0.154

Sequence | recombinant barcode read abundance (log10)
AGTTGGGCTTGGGTTCTAACCTGTTGCTG (site AGTTGGGCTCA) | 1.02
ATAAAACCTTGGGTTCTAACCTGTTGCCT (site ATAAAACCTAG) | 1.23
ATAAAACCTTGGGTTCTAACCTGTTGCCT (site CTAAAACCTAG) | 0.64
ATAAAACCTTGGGTTCTAACCTGTTGCCT (site GTAAAACCTAG) | 0.114
ATAAAACCTTGGGTTCTAACCTGTTGCCT (site TTAAAACCTAG) | 0.244
ATAAAGCCTTGGGTTCTAACCTGTTGCCT (site ATAAAGCCTAG) | 2.05
ATAAAGCCTTGGGTTCTAACCTGTTGCCT (site ATAAGGCCTAG) | 0.0177
ATAAATCCTTGGGTTCTAACCTGTTGCCT (site ATAAATCCTAG) | 0.632
ATAAATCCTTGGGTTCTAACCTGTTGCCT (site CTAAATCCTAG) | 0.126
ATAAATCCTTGGGTTCTAACCTGTTGCCT (site GTAAATCCTAG) | 0.0609
ATAAATCCTTGGGTTCTAACCTGTTGCCT (site TTAAATCCTAG) | 0.0804
ATAACTACTTGGGTTCTAACCTGTTGCCA (site ATAACTACTTG) | 0.462
ATAACTACTTGGGTTCTAACCTGTTGCCA (site ATGTCTACTTG) | 0.299
ATACAATCTTGGGTTCTAACCTGTTGCCT (site ATACAATCTAG) | 1.13
ATACAATCTTGGGTTCTAACCTGTTGCCT (site CTACAATCTAG) | 0.127
ATACAATCTTGGGTTCTAACCTGTTGCCT (site GTACAATCTAG) | 0.0425
ATACAATCTTGGGTTCTAACCTGTTGCCT (site TTACAATCTAG) | 0.202
ATACCATCTTGGGTTCTAACCTGTTGCCT (site ATACCATCTAG) | 0.031
ATACCATCTTGGGTTCTAACCTGTTGCCT (site ATCCCATCTAG) | 0.173
ATACCATCTTGGGTTCTAACCTGTTGCCT (site ATGCCATCTAG) | 0.855
ATACCATCTTGGGTTCTAACCTGTTGCCT (site ATTCCATCTAG) | 0.34
ATACGGACTTGGGTTCTAACCTGTTGCAG (site ATACGGACTCT) | 2.77
